Square brackets hold non-standard residues; d marks the D form. Peptide text beside a SMILES is read from it. Ac6c = NC1(C(=O)O)CCCCC1
Columns and labels:
E. coli BW25113 = assay: Checkerboard assay (FICI); type: cell-based, Escherichia coli; conditions: E. coli BW25113, 25% MHB2; synergy FICI ≤ 0.5, antagonism FICI ≥ 4; Table S6
Method: Synergy was tested in sterile 96-well plates (polystyrene F-bottom, Greiner Bio-One GmbH) using a total volume of 100 μL per well. […] Plates were incubated (37 °C, 20 h) and the optical density recorded at 595 nm using a microplate reader (Victor3, Perkin Elmer Inc., Waltham, MA, USA). The fractional inhibitory concentration index (FICI) was calculated by the equation FICI = […] = (A/MICA) + (B/MICB), where MICA/B are the MICs of an antimicrobial peptide (A) and one of the three tested antibiotics (B) alone and A and B are the MICs of combined antimicrobials. Synergy was defined as FICI ≤ 0.5, antagonism as FICI ≥ 4 and additive or indifference as FICI between 0.5 and 4.

E. coli BW25113 ∆sbmA = type: cell-based, Escherichia coli; conditions: 20 h, at least duplicates on two days, * once on two days, ** duplicate on one day; for Minimal Inhibitory Concentration, 25% MHB2, ∆sbmA: 25% MHB2, 37 °C; for Minimal Inhibitory Concentration, 33% TSB, ∆sbmA: 37 °C
In short: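 Twofold peptide dilutions from 128 mg/L were made in 25% MHB2 or 33% TSB, with 4 h subcultured bacteria added to […]. After 20 h at 37 °C, OD595 was read; MIC is the lowest peptide concentration preventing visible growth.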

E. coli 70S ribosome [1] = assay: Competitive fluorescence polarization assay against Cf-Api137 (Ki); type: binding; conditions: Supplementary Figure S3; read-out: Ki as competitor of Cf-Api137
Method: Dissociation and inhibitory constants were determined in black 384-well-plates (Greiner Bio-One GmbH, Frickenhausen, Germany) blocked with 0.5% (w/v) casein in phosphate buffered saline (PBS, 8.8 mmol/L Na2HPO4×12 H2O, 1.2 mmol/L KH2PO4, 0.3 mol/L NaCl, pH 7.4) containing 0.05% (w/v) Tween® 20 (PBST) overnight at 4 °C and washed three times with PBST.
Ribosome solution was added (10 µmol/L) and the plate was incubated after centrifugation (2 min, 500× g, Rotor S2096, Allegra^TM 21R, Beckmann Coulter) at 28 °C for 90 min. Cf-labeled peptide was added (10 µL; final concentration of 20 nmol/L; final ribosome concentration of 0.5 µmol/L) and the plate was centrifuged and incubated again (90 min, 28 °C, dark). Fluorescence polarization was recorded (λex = 485 nm, λem = 535 nm) on a […]^TM microplate reader. Kd and IC50 values were calculated by fitting the data with a variable slope parameter [y = min + (max − min)/(1 + (x/Kd) ^−Hill slope) ] using SigmaPlot 13 (Systat Software Inc., San Jose, CA, USA). The obtained IC50 values were used to calculate the Ki values.

E. coli 70S ribosome [2] = assay: Competitive FP binding screening assay with Cf-ARV-1502 (relative FP); parameters: species or system E. coli BW25113; conditions: for Ribosome Binding (%): competitive ribosome binding against Cf-ARV-1502 (relative FP; values match 1.2 µmol/L peptide), low value = strong competition
Method: E. coli 70S ribosomes were prepared using a previously described protocol that was slightly modified. Briefly, E. coli BW25113 was cultivated in Luria-Bertani (LB) medium and cells were harvested after reaching an optical density of ~4 at 600 nm by centrifugation (5000× g, 15 min, 4 °C, Rotor JLA 8.100, Avanti J-20 XP, Beckmann Coulter, Krefeld, Germany). The cell pellets were frozen and stored at −80 °C. Cells were resuspended in ribosome buffer (2 mL/g cells; 20 mmol/L HEPES-KOH, 6 mmol/L MgCl2, 30 mmol/L NH4Cl, 4 mmol/L 2-mercaptoethanol, pH 7.6). Lysozyme (0.25 g/L cell suspension) was added, and the mixture was incubated on ice for 30 min. Cells were disrupted using the bead mill homogenizer FastPrep-24™ 5G (40 s, 4 m/s, 6 cycles, MP Biomedicals Germany GmbH, Eschwege, Germany) and zirconia/silica beads (0.1 mm diameter). The lysate was centrifuged (1500× g, 5 min, 4 °C, Rotor S4180, Allegra 21R, Beckmann Coulter) and the supernatant was incubated with DNase (5 U/mL) on ice for 60 min. The cell debris was removed by two centrifugation steps (16,000× g, 30 min, 4 °C followed by 32,000× g, 60 min, 4 °C, Rotor JA 30.50 Ti, Avanti J-30I, Beckmann Coulter). The ribosome was pelleted by ultracentrifugation (165,000× g, 17 h, 4 °C, Rotor 70 Ti, Optima LE-80K, Beckmann Coulter), resuspended in ribosome buffer (0.1 mL/g pellet), and stored at −80 °C. The ribosome concentration was determined by recording the absorbance of RNA at 260 nm (NanoPhotometer NP80, Implen GmbH, München, Germany) assuming that 1 AU corresponds to a ribosome concentration of 28 nmol/L. The molecular weight of the E. coli 70S ribosome was assumed to be 2.3 MDa.
E. coli 70S ribosomes and Cf-ARV-1502 were incubated with four different concentrations of unlabeled peptides chosen based on the IC50 curves of reference peptide ARV-1502. Each peptide was diluted in ribosome buffer to obtain a concentration of 4.8 µmol/L and transferred to a 384-well-plate. Peptides were then twofold serially diluted in four steps from 4.8 to 0.6 µmol/L (20 µL). The ribosome extract was diluted in ribosome buffer to reach a concentration of 2 µmol/L and 10 µL were added to each well to obtain a final ribosome concentration of 0.5 µmol/L. Plates were centrifuged (2 min, 500× g, Rotor S2096, Allegra^TM 21R, Beckmann Coulter) and incubated at 28 °C for 90 min. Cf-labeled ARV-1502 was added (10 µL; final concentration of 20 nmol/L) and the plates were again centrifuged and incubated (28 °C, 90 min). After incubation, fluorescence polarization was recorded on a […]^TM microplate reader (λex = 485 nm, λem = 535 nm).
On each plate 12 minimum (30 µL ribosome buffer and 10 µL Cf-ARV-1502) and 12 maximum (20 µL ribosome buffer, 10 µL ribosome solution and 10 µL Cf-ARV-1502) control samples were added. Fluorescence polarization of screening samples was normalized to the fluorescence polarization of these control samples. All screening samples were measured in triplicates and the whole experiment was repeated once on another day.

[3] = control without unlabeled peptide = 100%, 0.5 µmol/L ribosome, 20 nmol/L Cf-ARV-1502, triplicates, repeated once on another day

Structure (SMILES)	Checkerboard assay (FICI), peptide combined with chloramphenicol (E. coli BW25113)	Minimal Inhibitory Concentration, 25% MHB2, ∆sbmA (E. coli BW25113 ∆sbmA)	Minimal Inhibitory Concentration, 33% TSB, ∆sbmA (E. coli BW25113 ∆sbmA)	Ki (E. coli 70S ribosome [1])	Ribosome Binding (%) (E. coli 70S ribosome [2])	Relative FP at 1.2 µmol/L unlabeled peptide (E. coli 70S ribosome [2]; [3])	Relative FP at 2.4 µmol/L unlabeled peptide (E. coli 70S ribosome [2]; [3])	Inhibition of Cf-ARV-1502 binding to the 70S ribosome (in words) (E. coli 70S ribosome [2]; Figure 3: peptide concentration 1.2 µmol/L)
CC(C)C[C@H](NC(=O)[C@H](Cc1ccc(O)cc1)NC(=O)[C@@H]1CCCN1C(=O)[C@H](CCCNC(=N)N)NC(=O)[C@@H]1CCCN1C(=O)[C@H](CCCCN)NC(=O)[C@H](CC(=O)O)NC(=O)[C@@H]1CCCN1C(=O)[C@H](CCCNC(=N)N)NC(=O)C1(N)CCCCC1)C(=O)N1CCC[C@H]1C(=O)N[C@@H](CCCNC(=N)N)C(=O)N1CCC[C@H]1C(=O)N[C@@H](CCCNC(=N)N)C(=O)N1CCC[C@H]1C(=O)N1CCC[C@H]1C(=O)N[C@@H](CCCNC(=N)N)C(=O)N1CCC[C@H]1C(=O)N[C@H](C(=O)N[C@@H](CCCNC(=N)N)C(N)=O)C(C)C [ARV-1502] (H-[Ac6c]RPDKPRPYLPRPRPPRPVR-NH2)	did not indicate synergistic or antagonistic effects	16 to 32 µg/mL	64 µg/mL	3.14 µM	40.9 ± 3.9%	40.9 ± 3.9%	32.1 ± 1.3%	
CC[C@H](C)[C@H](NC(=O)[C@@H](CCCNC(=N)N)NC(=O)[C@H](CCCNC(=N)N)NC(=O)[C@@H]1CCCN1C(=O)[C@@H]1CCCN1C(=O)[C@H](CCCNC(=N)N)NC(=O)[C@@H]1CCCN1C(=O)[C@H](CCCNC(=N)N)NC(=O)[C@@H]1CCCN1C(=O)[C@H](CC(C)C)NC(=O)[C@H](Cc1ccc(O)cc1)NC(=O)[C@@H]1CCCN1C(=O)[C@@H]1CCCN1C(=O)[C@H](CCCCN)NC(=O)[C@H](CC(=O)O)NC(=O)[C@@H](N)C(C)C)C(=O)N[C@@H](Cc1ccc(O)cc1)C(=O)N[C@@H](CC(N)=O)C(=O)N[C@H](CCCNC(=N)N)C(N)=O [Onc112, reference compound] (H-VDKPPYLPRPRPPR[dR]IYN[dR]-NH2; N-terminus and C-terminus assumed)		16 to 32 µg/mL	64 µg/mL		32.1 ± 1.0%			
CC(C)C[C@H](NC(=O)[C@H](Cc1ccc(O)cc1)NC(=O)[C@@H]1CCCN1C(=O)[C@H](CCCNC(=N)N)NC(=O)[C@@H]1CCCN1C(=O)[C@H](CCCCN)NC(=O)[C@H](CCCCN)NC(=O)[C@@H]1CCCN1C(=O)[C@H](CCCNC(=N)N)NC(=O)C1(N)CCCCC1)C(=O)N1CCC[C@H]1C(=O)N[C@@H](CCCNC(=N)N)C(=O)N1CCC[C@H]1C(=O)N[C@@H](CCCNC(=N)N)C(=O)N1CCC[C@H]1C(=O)N1CCC[C@H]1C(=O)N[C@@H](CCCNC(=N)N)C(=O)N1CCC[C@H]1C(=O)N[C@H](C(=O)N[C@@H](CCCNC(=N)N)C(N)=O)C(C)C [Peptide 2] (H-[Ac6c]RPKKPRPYLPRPRPPRPVR-NH2; N-terminus and C-terminus assumed)	Slightly higher FICIs				40.3 ± 2.2%			did not reduce the competition with Cf-ARV-1502
